Reference: ChEMBL document CHEMBL1201862, “PubChem BioAssay data set” (2004)
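Interpolation was linear, between the two tested concentrations surrounding the appropriate level; five concentrations were tested over 48 hours in 96-well plates. At the GI50, growth is halved.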 Activity calls are given as the source filed them. Cut-off read from the data, not from the text of the source: active = GI50 up to about 1.1 µM and inactive = higher.

What was measured:
Assay in all cases: NCI tumour cell line growth inhibition, 48 h
786-0 = system: 786-0
A498 = system: A498
A549 = system: A549
ACHN = system: ACHN
CCRF-CEM = system: CCRF-CEM
COLO 205 = system: COLO 205
DLD-1 = system: DLD-1
DMS-114 = system: DMS-114
DMS-273 = system: DMS-273
EKVX = system: EKVX
HCC 2998 = system: HCC 2998
HCT-116 = system: HCT-116
HCT-15 = system: HCT-15
HL-60 = system: HL-60
HOP-18 = system: HOP-18
HOP-62 = system: HOP-62
HT-29 = system: HT-29
IGROV-1 = system: IGROV-1
K562 = system: K562
KM-20L2 = system: KM-20L2
KM12 = system: KM12
LOX IMVI = system: LOX IMVI
LXFL 529 = system: LXFL 529
M14 = system: M14
M19-MEL = system: M19-MEL
MOLT-4 = system: MOLT-4
Malme-3M = system: Malme-3M
NCI-H226 = system: NCI-H226
NCI-H23 = system: NCI-H23
NCI-H460 = system: NCI-H460
NCI-H522 = system: NCI-H522
OVCAR-3 = system: OVCAR-3
OVCAR-4 = system: OVCAR-4
OVCAR-5 = system: OVCAR-5
OVCAR-8 = system: OVCAR-8
RXF 393 = system: RXF 393
RXF 631 = system: RXF 631
SF-268 = system: SF-268
SF-295 = system: SF-295
SF-539 = system: SF-539
SK-MEL-28 = system: SK-MEL-28
SK-MEL-2 = system: SK-MEL-2
SK-MEL-5 = system: SK-MEL-5
SK-OV-3 = system: SK-OV-3
SN12C = system: SN12C
SNB-19 = system: SNB-19
SNB-75 = system: SNB-75
SNB-78 = system: SNB-78
SR = system: SR
SW-620 = system: SW-620
TK-10 = system: TK-10
U-251 = system: U-251
UACC-257 = system: UACC-257
UO-31 = system: UO-31
XF498 = system: XF498

`COC(=O)C(CCC1(C)OCCO1)C(C)=O` (stereo not given) was tested, and the GI50 (786-0) was > 100 µM (inactive), the GI50 (A498) was > 100 µM (inactive) and the GI50 (A549) was > 100 µM (inactive). For the same molecule, the GI50 (ACHN) was > 100 µM (inactive), the GI50 (CCRF-CEM) was > 100 µM (inactive) and the GI50 (COLO 205) was > 100 µM (inactive). For the same molecule, the GI50 (DLD-1) was > 100 µM (inactive), the GI50 (DMS-114) was > 100 µM (inactive) and the GI50 (DMS-273) was > 100 µM (inactive). For the same molecule, the GI50 (EKVX) was > 100 µM (inactive), the GI50 (HCC 2998) was > 100 µM (inactive) and the GI50 (HCT-116) was > 100 µM (inactive). The GI50 (HCT-15) was greater than 100 µM, the GI50 (HL-60) was > 100 µM (inactive) and the GI50 (HOP-18) was > 100 µM (inactive). For the same molecule, the GI50 (HOP-62) was > 100 µM (inactive), the GI50 (HT-29) was > 100 µM (inactive) and the GI50 (IGROV-1) was > 100 µM (inactive). The GI50 (K562) was > 100 µM (inactive), the GI50 (KM-20L2) was > 100 µM (inactive) and the GI50 (KM12) was > 100 µM (inactive). For the same molecule, the GI50 (LOX IMVI) was > 100 µM (inactive), the GI50 (LXFL 529) was > 100 µM (inactive) and the GI50 (M14) was > 100 µM (inactive). The GI50 (M19-MEL) was > 100 µM (inactive), the GI50 (MOLT-4) was > 100 µM (inactive) and the GI50 (Malme-3M) was > 100 µM (inactive). For the same molecule, the GI50 (NCI-H226) was > 100 µM (inactive), the GI50 (NCI-H23) was > 100 µM (inactive) and the GI50 (NCI-H460) was > 100 µM (inactive). For the same molecule, the GI50 (NCI-H522) was > 100 µM (inactive), the GI50 (OVCAR-3) was > 100 µM (inactive) and the GI50 (OVCAR-4) was > 100 µM (inactive). The GI50 (OVCAR-5) was > 100 µM (inactive), the GI50 (OVCAR-8) was > 100 µM (inactive) and the GI50 (RXF 393) was > 100 µM (inactive). The GI50 (RXF 631) was > 100 µM (inactive), the GI50 (SF-268) was > 100 µM (inactive) and the GI50 (SF-295) was > 100 µM (inactive). The GI50 (SF-539) was > 100 µM (inactive), the GI50 (SK-MEL-28) was > 100 µM (inactive) and the GI50 (SK-MEL-2) was > 100 µM (inactive). For the same molecule, the GI50 (SK-MEL-5) was > 100 µM (inactive), the GI50 (SK-OV-3) was > 100 µM (inactive) and the GI50 (SN12C) was > 100 µM (inactive). For the same molecule, the GI50 (SNB-19) was > 100 µM (inactive), the GI50 (SNB-75) was > 100 µM (inactive) and the GI50 (SNB-78) was > 100 µM (inactive). For the same molecule, the GI50 (SR) was 84.3 µM (inactive), the GI50 (SW-620) was > 100 µM (inactive) and the GI50 (TK-10) was > 100 µM (inactive). For the same molecule, the GI50 (U-251) was > 100 µM (inactive), the GI50 (UACC-257) was > 100 µM (inactive) and the GI50 (UO-31) was > 100 µM (inactive). For the same molecule, the GI50 (XF498) was > 100 µM (inactive).
